Source: paper PMC7756445, “A Novel Prodrug of a nNOS Inhibitor with Improved Pharmacokinetic Potential” (Chemmedchem, 2020)
Read-outs that look alike come from different tables or passages of the source.

What was measured:
[1] = PAMPA-BBB assay; design: Papp at 18 h: dose or concentration left out as unconfirmed; conditions: porcine polar brain lipid, 18 h
Description: The relative passive transcellular diffusion of compounds, expressed as permeability coefficient (Pe), was determined with a permeability equation. ^[45] The permeabilities of 1, 2, and 1400 W were determined at pH 5.0, 6.5, and 7.4 to mimic the physiological conditions of the GI tract (Table 1). […] As the new prodrug was designed for the potential treatment of neurodegenerative diseases, an important parameter is its capability to cross the BBB.
PAMPA‐BBB assays were performed following the same procedure described above for PAMPA‐GI. Briefly, an artificial membrane consisting in a porcine polar brain lipid extract mixture (purchased from Avantis Polar Lipids, Alabaster, AL, USA) and an incubation time of 18 h were adopted as experimental conditions.

[2] = Log D and log P by shake-flask method; assay type: physicochemical; conditions: n-octanol/aqueous buffer
Text: The herein presented amidoxime 2 was designed as prodrug of the amidine 1 to improve membrane permeability and oral bioavailability. In this context, the deepening of the physicochemical properties is essential to obtain a favorable pharmacological profile. Therefore, we investigated the lipophilicity, the passive permeation through the human GI tract through the PAMPA assays, and the chemical and enzymatic stabilities in simulated GI fluids and plasma. […] In this study, the lipophilicity of our compounds was determined by means of the “shake‐flask method” and compared to the corresponding values calculated by the software. ^[43] However, for ionizable compounds, the distribution coefficient (log D) should be used instead of log P in the pH range where ionic species exist. ^[44] In this study, log P and log D were calculated (Table 1).
The column was a Waters Symmetry RP‐C18 column (4.6×150 mm, 5 μm). The mobile phase was a mixture of TFA 0.01 M/ACN/(MeOH/THF 90 : 10) 20/52/28 and the flow rate was 0.7 mL/min. The UV detector was set at a length of 254 nm.
Both n‐octanol and aqueous buffer (pH 1.4, 6.5 and 9.4) solutions were saturated of each other. 2 mg of tested compound was dissolved in 500 μL of organic phase and mixed with an equal volume of aqueous buffer by repeated inversions of up to 200 times for 5 min and then allowed to stand for 30 min for the phases to fully separate. Thereafter, the respective phases were analyzed by HPLC.

[3] = target: T1, B5 and B5R (Homo sapiens, UniProt O43169+P00387); experiment: Bioconversion control experiment without mARC; assay type: in vitro ADME; conditions: B5 and B5R only, no mARC; NADH assay
T1 sequence (O43169 16-150): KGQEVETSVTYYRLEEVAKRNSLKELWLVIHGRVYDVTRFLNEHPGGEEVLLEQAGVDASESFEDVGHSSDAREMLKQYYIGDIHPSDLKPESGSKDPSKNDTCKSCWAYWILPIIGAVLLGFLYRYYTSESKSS
T1 sequence (P00387 24-301 limits assumed): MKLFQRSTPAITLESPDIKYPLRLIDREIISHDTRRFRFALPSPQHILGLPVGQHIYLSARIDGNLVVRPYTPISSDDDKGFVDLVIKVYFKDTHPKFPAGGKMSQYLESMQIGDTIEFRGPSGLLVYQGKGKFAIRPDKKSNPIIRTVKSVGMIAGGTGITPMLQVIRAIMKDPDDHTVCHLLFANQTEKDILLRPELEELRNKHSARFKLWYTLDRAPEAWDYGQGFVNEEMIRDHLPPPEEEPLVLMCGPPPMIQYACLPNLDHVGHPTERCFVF

[4] = Stability in human plasma; assay type: in vitro ADME; conditions: 37 °C
Description: Finally, the stability in human plasma was assessed.
Human plasma was purchased from 3H Biomedical (Uppsala, Sweden). For the determination of enzymatic stability in human plasma, the reactions were initiated by adding 50 μL of compound stock solution to 450 μL of pre‐heated plasma, and incubated at 37±0.5 °C. At appropriate time intervals, 50 μL of the plasma were taken and deproteinized by the addition of 450 μL of CH3CN. After mixing and centrifugation for 10 min at 10 000 rpm, the supernatant (5 μL) was analyzed by HPLC, adopting the same chromatographic conditions described for chemical stability evaluations. ^[48]

Papp at 18 h ([1]; pig, PAMPA, PAMPA-BBB permeability Pe): > 4 ×10⁻⁶ cm/s
logD ([2]; pH 1.4, n-octanol/aqueous buffer pH 1.4, mean ± SD of three, read-out: log D 1.4): -0.16
logD ([2]; pH 1.4, pH 1.4 to 9.4, range stated in text, read-out: log D values over the pH values tested): -0.16 to 0.39
logD ([2]; pH 6.5, n-octanol/aqueous buffer pH 6.5, mean ± SD of three, read-out: log D 6.5): 0.29
logD ([2]; pH 9.4, n-octanol/aqueous buffer pH 9.4, mean ± SD of three, read-out: log D 9.4): 0.39
logP ([2]; shake-flask, as free amine, mean ± SD of three): 3.24
conversion to the amidine 1 in control experiment [3]: no conversion
stability in human plasma [4]: stable
SMILES: C/C(=N\O)NC(c1ccccc1)c1ccccc1 [Compound 2, (1E)‐N‐(diphenylmethyl)‐N′‐hydroxyethanimidamide]
PAMPA-BBB permeation class [1]: CNS+ (CNS+ (indicative of high BBB permeation): Pe >4.0)
